Assay results as given in patent US12338237B2, “Derivatives having 1,2,3,4-tetrahydronaphthalene moiety or pharmaceutically acceptable salt thereof and pharmaceutical compositions comprising the same” (YUHAN CORPORATION, priority 2019, dated 2025).
Read-outs that look alike come from different tables or passages of the source.

Columns and labels:
[1] = tested on: GM1 production; test: cells; type: cell-based
[2] = target: glucosylceramide synthase (GCS) (Homo sapiens (Human), UniProt Q16739); test: Evaluation of inhibitory activities against GCS (enzyme reaction with A549 cell lysate, NBD C6-ceramide, HPLC fluorescence); type: biochemical; details: GCS activity in A549 cell lysate, 37° C. for 90 minutes
Method in brief: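 Lysate of A549 cells in 50 mM HEPES pH 7.3 incubated with test compound and NBD C6-ceramide at 37 °C for 90 min; lipids extracted with chloroform/methanol and GlcCer and ceramide peaks quantified by HPLC fluorescence. Activity from GlcCer area fraction, normalised between DMSO and ibiglustat controls.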

Chain of glucosylceramide synthase (GCS) (Q16739 whole entry, looked up): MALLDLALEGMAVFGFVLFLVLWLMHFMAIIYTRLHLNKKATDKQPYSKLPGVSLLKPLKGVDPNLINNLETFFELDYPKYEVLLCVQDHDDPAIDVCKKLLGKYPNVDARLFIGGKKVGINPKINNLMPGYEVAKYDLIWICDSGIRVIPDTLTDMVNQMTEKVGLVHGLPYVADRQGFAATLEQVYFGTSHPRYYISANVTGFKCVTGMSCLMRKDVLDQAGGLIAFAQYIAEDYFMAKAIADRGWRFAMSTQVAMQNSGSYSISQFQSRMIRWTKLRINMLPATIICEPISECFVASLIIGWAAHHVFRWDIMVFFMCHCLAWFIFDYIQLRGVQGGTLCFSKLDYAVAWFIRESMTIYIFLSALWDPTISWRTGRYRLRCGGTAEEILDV

SMILES | IC50 ([1]; Homo sapiens, Jurkat, 72 h) | IC50 [2] | IC50 ([1]; read-out: IC50)
COc1cc(-c2ccc3c(c2)CCC(C)(C)C3NC(=O)O[C@@H]2CN3CCC2CC3)ccc1Cl (stereo partly drawn) [Example 124, (S)-quinuclidin-3-yl (6-(4-chloro-3-methoxyphenyl)-2,2-dimethyl-1,2,3,4-tetrahydronaphthalen-1-yl)carbamate] | 3.35 nM | 1.6 nM | 
COc1ccc(Cl)c(-c2ccc3c(c2)CCC(C)(C)C3NC(=O)O[C@@H]2CN3CCC2CC3)c1 (stereo partly drawn) [Example 125, (S)-quinuclidin-3-yl (6-(2-chloro-5-methoxyphenyl)-2,2-dimethyl-1,2,3,4-tetrahydronaphthalen-1-yl)carbamate] | 2.04 nM | 1.1 nM | 
COc1ccc(-c2ccc3c(c2)CCC(C)(C)C3NC(=O)O[C@@H]2CN3CCC2CC3)cc1F (stereo partly drawn) [Example 126, (S)-quinuclidin-3-yl (6-(3-fluoro-4-methoxyphenyl)-2,2-dimethyl-1,2,3,4-tetrahydronaphthalen-1-yl)carbamate] | 1.89 nM | 0.83 nM | 
CCc1cccc(-c2ccc3c(c2)CCC(C)(C)C3NC(=O)O[C@@H]2CN3CCC2CC3)c1 (stereo partly drawn) [Example 127, (S)-quinuclidin-3-yl (6-(3-ethylphenyl)-2,2-dimethyl-1,2,3,4-tetrahydronaphthalen-1-yl)carbamate] | 2 nM | 1.92 nM | 
CC(C)(C)c1cccc(-c2ccc3c(c2)CCC(C)(C)C3NC(=O)O[C@@H]2CN3CCC2CC3)c1 (stereo partly drawn) [Example 128, (S)-quinuclidin-3-yl (6-(3-(tert-butyl)phenyl)-2,2-dimethyl-1,2,3,4-tetrahydronaphthalen-1-yl)carbamate] | 1.3 nM | 2.84 nM | 
CC(C)c1cccc(-c2ccc3c(c2)CCC(C)(C)C3NC(=O)O[C@@H]2CN3CCC2CC3)c1 (stereo partly drawn) [Example 129, (S)-quinuclidin-3-yl (6-(3-isopropylphenyl)-2,2-dimethyl-1,2,3,4-tetrahydronaphthalen-1-yl)carbamate] | 1.3 nM | 2.08 nM | 
CC1(C)CCc2cc(-c3cccc(C(F)F)c3)ccc2C1NC(=O)O[C@@H]1CN2CCC1CC2 (stereo partly drawn) [Example 130, (S)-quinuclidin-3-yl (6-(3-(difluoromethyl)phenyl)-2,2-dimethyl-1,2,3,4-tetrahydronaphthalen-1-yl)carbamate] | 1.3 nM | 1.24 nM | 
CN(C)c1cccc(-c2ccc3c(c2)CCC(C)(C)C3NC(=O)O[C@@H]2CN3CCC2CC3)c1 (stereo partly drawn) [Example 131, (S)-quinuclidin-3-yl (6-(3-(dimethylamino)phenyl)-2,2-dimethyl-1,2,3,4-tetrahydronaphthalen-1-yl)carbamate] | 2.3 nM | 1.49 nM | 
CC(C)Oc1cccc(-c2ccc3c(c2)CCC(C)(C)C3NC(=O)O[C@@H]2CN3CCC2CC3)c1 (stereo partly drawn) [Example 132, (S)-quinuclidin-3-yl (6-(3-isopropoxyphenyl)-2,2-dimethyl-1,2,3,4-tetrahydronaphthalen-1-yl)carbamate] | 2 nM | 1.16 nM | 
COc1cccc(-c2ccc3c(c2)CCC(C)(C)C3NC(=O)O[C@@H]2CN3CCC2CC3)c1OC (stereo partly drawn) [Example 133, (S)-quinuclidin-3-yl (6-(2,3-dimethoxyphenyl)-2,2-dimethyl-1,2,3,4-tetrahydronaphthalen-1-yl)carbamate] | 1 nM | 1.05 nM | 
COc1ccc(-c2ccc3c(c2)CCC(C)(C)C3NC(=O)O[C@@H]2CN3CCC2CC3)c(OC)c1 (stereo partly drawn) [Example 134, (S)-quinuclidin-3-yl (6-(2,4-dimethoxyphenyl)-2,2-dimethyl-1,2,3,4-tetrahydronaphthalen-1-yl)carbamate] | 6.6 nM | 2.95 nM | 
COc1ccc(OC)c(-c2ccc3c(c2)CCC(C)(C)C3NC(=O)O[C@@H]2CN3CCC2CC3)c1 (stereo partly drawn) [Example 135, (S)-quinuclidin-3-yl (6-(2,5-dimethoxyphenyl)-2,2-dimethyl-1,2,3,4-tetrahydronaphthalen-1-yl)carbamate] | 8.3 nM | 2.81 nM | 
COc1cccc(OC)c1-c1ccc2c(c1)CCC(C)(C)C2NC(=O)O[C@@H]1CN2CCC1CC2 (stereo partly drawn) [Example 136, (S)-quinuclidin-3-yl (6-(2,6-dimethoxyphenyl)-2,2-dimethyl-1,2,3,4-tetrahydronaphthalen-1-yl)carbamate] | 21.2 nM | 9.22 nM | 
COc1ccc(-c2ccc3c(c2)CCC(C)(C)C3NC(=O)O[C@@H]2CN3CCC2CC3)cc1OC (stereo partly drawn) [Example 137, (S)-quinuclidin-3-yl (6-(3,4-dimethoxyphenyl)-2,2-dimethyl-1,2,3,4-tetrahydronaphthalen-1-yl)carbamate] | 8.4 nM | 2.14 nM | 
COc1cc(OC)cc(-c2ccc3c(c2)CCC(C)(C)C3NC(=O)O[C@@H]2CN3CCC2CC3)c1 (stereo partly drawn) [Example 138, (S)-quinuclidin-3-yl (6-(3,5-dimethoxyphenyl)-2,2-dimethyl-1,2,3,4-tetrahydronaphthalen-1-yl)carbamate] | 3.8 nM | 1.19 nM | 
COc1ccc(-c2ccc3c(c2)CCC(C)(C)C3NC(=O)O[C@@H]2CN3CCC2CC3)cc1Cl (stereo partly drawn) [Example 139, (S)-quinuclidin-3-yl (6-(3-chloro-4-methoxyphenyl)-2,2-dimethyl-1,2,3,4-tetrahydronaphthalen-1-yl)carbamate] | 8.8 nM | 4.78 nM | 
CCOc1ccc(-c2ccc3c(c2)CCC(C)(C)C3NC(=O)O[C@@H]2CN3CCC2CC3)cc1Cl (stereo partly drawn) [Example 140, (S)-quinuclidin-3-yl (6-(3-chloro-4-ethoxyphenyl)-2,2-dimethyl-1,2,3,4-tetrahydronaphthalen-1-yl)carbamate] | 1.4 nM | 1.49 nM | 
CCCOc1ccc(-c2ccc3c(c2)CCC(C)(C)C3NC(=O)O[C@@H]2CN3CCC2CC3)cc1Cl (stereo partly drawn) [Example 141, (S)-quinuclidin-3-yl (6-(3-chloro-4-propoxyphenyl)-2,2-dimethyl-1,2,3,4-tetrahydronaphthalen-1-yl)carbamate] | 1.1 nM | 1.51 nM | 
CC(C)Oc1ccc(-c2ccc3c(c2)CCC(C)(C)C3NC(=O)O[C@@H]2CN3CCC2CC3)cc1F (stereo partly drawn) [Example 142, (S)-quinuclidin-3-yl (6-(3-fluoro-4-isopropoxyphenyl)-2,2-dimethyl-1,2,3,4-tetrahydronaphthalen-1-yl)carbamate] | 3.4 nM | 1.11 nM | 
CCCCOc1ccc(-c2ccc3c(c2)CCC(C)(C)C3NC(=O)O[C@@H]2CN3CCC2CC3)cc1Cl (stereo partly drawn) [Example 143, (S)-quinuclidin-3-yl (6-(4-butoxy-3-chlorophenyl)-2,2-dimethyl-1,2,3,4-tetrahydronaphthalen-1-yl)carbamate] | 0.5 nM | 1.44 nM | 
CCOc1ccc(-c2ccc3c(c2)CCC(C)(C)C3NC(=O)O[C@@H]2CN3CCC2CC3)cc1F (stereo partly drawn) [Example 144, (S)-quinuclidin-3-yl (6-(4-ethoxy-3-fluorophenyl)-2,2-dimethyl-1,2,3,4-tetrahydronaphthalen-1-yl)carbamate] | 1.6 nM | 1.39 nM | 
CCCOc1ccc(-c2ccc3c(c2)CCC(C)(C)C3NC(=O)O[C@@H]2CN3CCC2CC3)cc1F (stereo partly drawn) [Example 145, (S)-quinuclidin-3-yl (6-(3-fluoro-4-propoxyphenyl)-2,2-dimethyl-1,2,3,4-tetrahydronaphthalen-1-yl)carbamate] | 0.7 nM | 0.87 nM | 
CCCOc1c(C)cc(-c2ccc3c(c2)CCC(C)(C)C3NC(=O)O[C@@H]2CN3CCC2CC3)cc1C (stereo partly drawn) [Example 146, (S)-quinuclidin-3-yl (6-(3,5-dimethyl-4-propoxyphenyl)-2,2-dimethyl-1,2,3,4-tetrahydronaphthalen-1-yl) carbamate] |  | 1.8 nM | 0.8 nM
CCCCOc1c(C)cc(-c2ccc3c(c2)CCC(C)(C)C3NC(=O)O[C@@H]2CN3CCC2CC3)cc1C (stereo partly drawn) [Example 147, (S)-quinuclidin-3-yl (6-(4-butoxy-3,5-dimethylphenyl)-2,2-dimethyl-1,2,3,4-tetrahydronaphthalen-1-yl)carbamate] | 0.1 nM | 1 nM | 
COc1ccc(-c2ccc3c(c2)CCC(C)(C)C3NC(=O)O[C@@H]2CN3CCC2CC3)c(F)c1 (stereo partly drawn) [Example 148, (S)-quinuclidin-3-yl (6-(2-fluoro-4-methoxyphenyl)-2,2-dimethyl-1,2,3,4-tetrahydronaphthalen-1-yl)carbamate] | 4.6 nM | 3.21 nM | 
CC(C)Oc1ccc(-c2ccc3c(c2)CCC(C)(C)C3NC(=O)O[C@@H]2CN3CCC2CC3)cc1Cl (stereo partly drawn) [Example 149, (S)-quinuclidin-3-yl (6-(3-chloro-4-isopropoxyphenyl)-2,2-dimethyl-1,2,3,4-tetrahydronaphthalen-1-yl)carbamate] | 3.9 nM | 3.5 nM | 
CC(=O)c1sccc1-c1ccc2c(c1)CCC(C)(C)C2NC(=O)O[C@@H]1CN2CCC1CC2 (stereo partly drawn) [Example 150, (S)-quinuclidin-3-yl (6-(2-acetylthiophen-3-yl)-2,2-dimethyl-1,2,3,4-tetrahydronaphthalen-1-yl)carbamate] | 17.1 nM | 8.7 nM | 
CC1(C)CCc2ccc(-c3ccc(F)cc3)cc2C1NC(=O)O[C@@H]1CN2CCC1CC2 (stereo partly drawn) [Example 151, (S)-quinuclidin-3-yl (7-(4-fluorophenyl)-2,2-dimethyl-1,2,3,4-tetrahydronaphthalen-1-yl)carbamate] | 33.4 nM | 7.27 nM | 
CC1(C)CCc2ccc(-c3ccc(Cl)cc3)cc2C1NC(=O)O[C@@H]1CN2CCC1CC2 (stereo partly drawn) [Example 152, (S)-quinuclidin-3-yl (7-(4-chlorophenyl)-2,2-dimethyl-1,2,3,4-tetrahydronaphthalen-1-yl)carbamate] | 25.9 nM | 5.72 nM | 
CC1(C)CCc2ccc(-c3ccc(C(F)(F)F)cc3)cc2C1NC(=O)O[C@@H]1CN2CCC1CC2 (stereo partly drawn) [Example 153, (S)-quinuclidin-3-yl (2,2-dimethyl-7-(4-(trifluoromethyl)phenyl)-1,2,3,4-tetrahydronaphthalen-1-yl)carbamate] | 5.54 nM | 4.43 nM | 
